Legend:
[1] = in vivo; cited from earlier work
[2] = relative to cortisol = 1; cited from earlier work
renal cortical p21 [3] = test: Glycerol AKI model: renal cortical p21 mRNA (RT-PCR, factored by GAPDH) and p21 protein (ELISA); assay type: in vivo, male CD-1 mice
Experimental: (§1) The present inventors conducted studies to better understand the factors that drive renal p21 expression during AKI. All experiments were performed using male CD-1 mice (35-40 grams, Charles River Laboratories, Wilmington, Del.) maintained under routine vivarium conditions with free food and water access. The AKI models were approved by the institution's Animal Care and Utilization Committee). All surgical procedures were conducted under deep pentobarbital anesthesia (40-50 mg/Kg IP).
Mice were briefly anesthetized with isoflurane, and then subjected to intramuscular glycerol injection (administered in equally divided doses into each hind limb). The glycerol dose ware varied (6, 6.5, 7, 7.5, 8, 8.5, 9 ml/Kg; n˜2-3 per dose) in order to produce variable degrees of renal injury. At 4 hrs post glycerol injection, a tail vein tail vein blood sample (˜25 μl) was obtained, and at 18 hrs, the mice were deeply anesthetized with pentobarbital. The abdominal cavity was opened through a midline abdominal incision, a terminal vena cava blood sample was obtained, the kidneys were removed, iced, and renal cortical samples were cut and extracted for both protein and total RNA (RNeasy Mini+; Qiagen; Germantown, Md.). A terminal urine sample was collected from the urinary bladder. Plasma samples were assayed for blood urea nitrogen (BUN) and creatinine (Cr). Johnson A C, Zager R A. Plasma and urinary p21: potential biomarkers of AKI and renal aging. Am J Physiol 2018; Aug. 1. doi: 10.1152/ajprenal.00328.2018. [Epub ahead of print]. Renal cortical, plasma, and urinary p21 concentrations were determined with a ‘sandwich’ ELISA which employs two distinct monoclonal antibodies (capture; detection) directed against two different p21 epitopes, conferring p21 specificity; (#2120721; Abcam, Cambridge, Mass.). Renal cortical p21 mRNA levels were determined by RT-PCR, factored by GAPDH. Ten normal mice provided control plasma, urine, and tissue values for comparisons.
To assess renal cortical changes at an earlier time point than that noted above (18 hrs post glycerol injection), an additional 5 mice were subjected to glycerol injection (8.5 ml/Kg) and 4 hrs later, renal cortical protein/RNA samples were obtained for use in the above noted assays. The results were contrasted to those observed in 5 normal mice.
Pifithrin-α is a stable, water soluble, p53 inhibitor which blocks activation of p53 responsive genes. Dagher P C, Mai E M, Hato T, Lee S Y, Anderson M D Karozos S C Mang H E, Knipe N L, Plotkin Z, Sutton T A: The p53 inhibitor pifithrin can stimulate fibrosis in a rat model of ischemic acute kidney injury. Am J Physiol Renal Physiol 302: F284-F291, 2012; Komarov P G, Komarova E A, Kondratov R V, Christov-Tselkov K, Coon J S, Chernov M V et al. A chemical inhibitor of p53 that protects mice from the side effects of cancer therapy. Science 285: 1733-1737, 1999. As such, it has been used to differentiate p53-dependent vs. p53-independent pathways. To further explore the potential role of p53 on p21 gene activation, 3 mice were injected IP with 10 mg/Kg pifithrin-α (10% DMSO in saline; EMD Millipore #506154; Burlington, Mass.). Three additional mice received vehicle injection. Immediately thereafter the mice were injected with […] glycerol. Four hrs post glycerol injection, renal cortical tissues were analyzed for p21 and p53 mRNAs.
Inflammation can induce p21 gene activation via the inflammatory cascade (1, 2). Basile J R, Eichten A, Zacny V, Münger K. NF-kappaB-mediated induction of p21(Cip1/Waf1) by tumor necrosis factor alpha induces growth arrest and cytoprotection in normal human keratinocytes. Mol Cancer Res. 2003; 4: 262-270; Bellido T, O'Brien C A, Roberson P K, Manolagas S C: Transcriptional Activation of the p21WAF1,CIP1,SDI1 Gene by Interleukin-6 Type Cytokines. J Biol Chem 1998; 273:21137-21144. […]

renal cortical p53 mRNA = test: Glycerol AKI model: renal cortical p53 mRNA; assay type: in vivo, male CD-1 mice; settings: 4 hr post glycerol + pifithrin-α 10 mg/Kg IP; mean ± SEM; glycerol alone 0.75±0.02; NS
Experimental: as §1
Mice were briefly anesthetized with isoflurane, and then subjected to intramuscular glycerol injection (administered in equally divided doses into each hind limb). The glycerol dose ware varied (6, 6.5, 7, 7.5, 8, 8.5, 9 ml/Kg; n˜2-3 per dose) in order to produce variable degrees of renal injury. […] Renal cortical, plasma, and urinary p21 concentrations were determined with a ‘sandwich’ ELISA which employs two distinct monoclonal antibodies (capture; detection) directed against two different p21 epitopes, conferring p21 specificity; (#2120721; Abcam, Cambridge, Mass.). Renal cortical p21 mRNA levels were determined by RT-PCR, factored by GAPDH. […]
Pifithrin-α is a stable, water soluble, p53 inhibitor which blocks activation of p53 responsive genes. […] Four hrs post glycerol injection, renal cortical tissues were analyzed for p21 and p53 mRNAs. […]

renal cortical p21 [4] = test: Normal mice (no renal injury): renal cortical p21 protein and mRNA; assay type: in vivo, male CD-1 mice
Experimental: The present inventors conducted studies to better understand the factors that drive renal p21 expression during AKI. All experiments were performed using male CD-1 mice (35-40 grams, Charles River Laboratories, Wilmington, Del.) maintained under routine vivarium conditions with free food and water access. The AKI models were approved by the institution's Animal Care and Utilization Committee). All surgical procedures were conducted under deep pentobarbital anesthesia (40-50 mg/Kg IP). Mice were briefly anesthetized with isoflurane, and then subjected to intramuscular glycerol injection (administered in equally divided doses into each hind limb). […] At 4 hrs post glycerol injection, a tail vein tail vein blood sample (˜25 μl) was obtained, and at 18 hrs, the mice were deeply anesthetized with pentobarbital. The abdominal cavity was opened through a midline abdominal incision, a terminal vena cava blood sample was obtained, the kidneys were removed, iced, and renal cortical samples were cut and extracted for both protein and total RNA (RNeasy Mini+; Qiagen; Germantown, Md.). A terminal urine sample was collected from the urinary bladder. Plasma samples were assayed for blood urea nitrogen (BUN) and creatinine (Cr). Johnson A C, Zager R A. Plasma and urinary p21: potential biomarkers of AKI and renal aging. Am J Physiol 2018; […] [Epub ahead of print]. Renal cortical, plasma, and urinary p21 concentrations were determined with a ‘sandwich’ ELISA which employs two distinct monoclonal antibodies (capture; detection) directed against two different p21 epitopes, conferring p21 specificity; (#2120721; Abcam, Cambridge, Mass.). Renal cortical p21 mRNA levels were determined by RT-PCR, factored by GAPDH. Ten normal mice provided control plasma, urine, and tissue values for comparisons. To determine the impact of DXM on renal p21 expression in the absence of renal injury, 5 mice were injected with DXM as above, and 4 hrs later p21 protein/mRNA levels were measured and compared to normal values. Given an unexpected finding that corticosteroid injection increased, rather than suppressed, p21 expression, and given that endogenous cortisol levels were markedly elevated post-glycerol injection, we questioned whether glucocorticoid receptor (GCR) blockade would decrease p21 expression. […] Four hrs later, the kidneys were removed and renal cortices were analyzed for p21 mRNA and protein levels. Four mice, treated with mifepristone in the absence of glycerol injection, served to evaluate its effects in the absence of glycerol injection.

[5] = glycerol treated mice, 4 hrs, MFP 30 mg/Kg, in words
[6] = control mice, 4 hrs post MFP 30 mg/Kg, in words
[7] = 4 hr post glycerol kidneys, DXM 250 μg IP 30 min before glycerol 8.5 ml/Kg
[8] = normal mice, within 4 hrs of DXM injection (250 μg IP)

C[C@H]1C[C@@H]2[C@H]([C@@H](O)C[C@@]3(C)[C@H]2CC[C@]3(O)C(=O)CO)[C@@]2(C)C=CC(=O)C=C12 [Methylprednisolone]
Terminal half-life [1]: 18 to 40 h

C[C@]12C=CC(=O)C=C1CC[C@@H]1[C@@H]2[C@@H](O)C[C@@]2(C)[C@H]1CC[C@]2(O)C(=O)CO [Prednisolone]
Glucocorticoid potency [2]: 4 | Terminal half-life [1]: 16 to 36 h

C[C@]12CCC(=O)C=C1CC[C@@H]1[C@@H]2C(=O)C[C@@]2(C)[C@H]1CC[C@]2(O)C(=O)CO [Cortisone]
Glucocorticoid potency [2]: 0.8

C[C@]12C=CC(=O)C=C1CC[C@@H]1[C@@H]2C(=O)C[C@@]2(C)[C@H]1CC[C@]2(O)C(=O)CO [Prednisone]
Terminal half-life [1]: 16 to 36 h

Cc1ccc(C(=O)Cn2c3c(sc2=N)CCCC3)cc1 [pifithrin-α, Pifithrin-α]
renal cortical p21 mRNA (renal cortical p21 [3]; 4 hr post glycerol + pifithrin-α 10 mg/Kg IP, mean ± SEM, controls 0.34±0.1, glycerol alone 1.43±0.11): 1.71±0.08 | renal cortical p53 mRNA (renal cortical p53 mRNA): 0.7±0.03

C[C@]12C=CC(=O)C=C1CC[C@H]1[C@@H]3C[C@@H](O)[C@](O)(C(=O)CO)[C@@]3(C)C[C@H](O)[C@@]12F [Triamcinolone]
Glucocorticoid potency [2]: 5 | Terminal half-life [1]: 12 to 36 h

CC#C[C@]1(O)CC[C@H]2[C@@H]3CCC4=CC(=O)CCC4=C3[C@@H](c3ccc(N(C)C)cc3)C[C@@]21C [Mifepristone]
effect on p21 protein levels (renal cortical p21 [3]; [5]): normalized | effect on post glycerol p21 mRNA levels (renal cortical p21 [3]; [5]): modest reduction | effect on p21 mRNA values (renal cortical p21 [4]; [6]): no significant decrease | effect on p21 protein values (renal cortical p21 [4]; [6]): no significant decrease

C[C@]12CCC(=O)C=C1CC[C@@H]1[C@@H]2[C@@H](O)C[C@@]2(C)[C@H]1CC[C@]2(O)C(=O)CO [Cortisol]
effect on 4 hr post glycerol p21 mRNA levels (renal cortical p21 [3]; cortisol 1 mg/Kg IP 30 min before glycerol 8.5 ml/Kg, in words): to the same degree as did DXM injection | Glucocorticoid potency [2]: 1 | Terminal half-life [1]: 8 h

C[C@@H]1C[C@H]2[C@@H]3CCC4=CC(=O)C=C[C@]4(C)[C@@]3(F)[C@@H](O)C[C@]2(C)[C@@]1(O)C(=O)CO [Dexamethasone]
increase in p21 mRNA (renal cortical p21 [3]; [7]): ~3 fold | increase in p21 protein (renal cortical p21 [3]; [7]): ~3 fold | increase in renal cortical p21 mRNA (renal cortical p21 [4]; [8]): 15 × | increase in renal cortical p21 protein (renal cortical p21 [4]; [8]): 10 ×

— patent publication US20200171051A1, “METHODS FOR TREATING RENAL INJURY BY […] UPREGULATING P21” (RENIBUS THERAPEUTICS, INC., priority 2018, published 2020)
